Experimental data as given in US20230072860A1, “ISOXAZOLINE OXIME FORMATE COMPOUND, PREPARATION METHOD THEREFOR, HERBICIDAL COMPOSITION AND USE THEREOF” (QINGDAO KINGAGROOT CHEMICAL COMPOUND CO., LTD., priority 2020, published 2023).

Tests used:
Assay in all cases: Experiment on weeding effect in post-emergence stage
Type in all cases: in vivo
Conditions in all cases: dose 15 g a.i./ha, fresh weight control rate level
[1] = tested on: Setaria viridis
From the text: (§1) Experiment on weeding effect in post-emergence stage:
(§2) Monocotyledonous and dicotyledonous weed seeds (Descurainia sophia, Capsella bursa-pastoris, Abutilon theophrasti, Galium aparine, Stellaria media, Lithospermum arvense, Rorippa indica, Alopecurus aequalis, Alopecurus japonicus, Beckmannia syzigachne, Sclerochloa dura, Conyza Canadensis, Phleum paniculatum, Veronica didyma Tenore, Eleusine indica, Bromus japonicus, Aegilops tauschii, Phalaris arundinacea, Amaranthus retroflexus, Chenopodium album, Commelina communis, Sonchus arvensis, Convolvulus arvensis, Cirsium setosum, Solanum nigrum, Acalypha australis, Digitaria sanguinalis, Echinochloa crusgalli, Setaria viridis, Setaria glauca, Leptochloa chinensis, Monochoria vaginalis, Sagittaria trolia, Scirpus juncoides, Cyperus rotundus, Cyperus iria, Cyperus difformis, Elmbristylis, Portulaca oleracea, Xanthium sibiricum, Pharbitis nil) and major crop seeds (wheat, corn, rice, soybean, cotton, oilseed rape, millet, sorghum, potato, sesame, ricinus) were placed in plastic pots filled with soil, then covered with 0.5-2 cm of soil, allowed to grow in a good greenhouse environment. After 2 weeks of sowing, the test plants were treated in the 2-3 leaf stage. The tested compounds of the present invention were respectively dissolved in acetone, then added with Tween 80 and 1.5 liter/ha of emulsifiable concentrate of methyl oleate as synergist, diluted with a certain amount of water to obtain a solution with a certain concentration, and sprayed with a spray tower onto the plants. After the application, the plants were cultured for 3 weeks in the greenhouse, and then the experimental results of the weeding were counted. The doses of the used compounds were 500, 250, 125, 60, 15 g a.i./ha, and the averages were obtained by repeating for three times.

[2] = tested on: Echinochloa crusgalli
From the text: as §1, §2

[3] = tested on: Leptochloa chinensis
From the text: as §1, §2

[4] = tested on: Digitaria sanguinalis
From the text: as §1, §2

[5] = tested on: Galium aparine
From the text: as §1, §2

[6] = tested on: Abutilon theophrasti
From the text: as §1, §2

[7] = tested on: Veronica didyma Tenore
From the text: as §1, §2

[8] = tested on: Amaranthus retroflexus
From the text: as §1, §2

[9] = tested on: Eleusine indica
From the text: as §1, §2

CC(=NOC(=O)C1(C)CC(c2cc(-n3c(=O)n(C)c(=S)n(C)c3=O)c(F)cc2Cl)=NO1)C(C)(C)C (mixture of isomers) [Compound 81]
weeding effect in post-emergence stage, Setaria viridis (level) [1]: 5 (Level 5: growth control rate is above 85%)
weeding effect in post-emergence stage, Echinochloa crusgalli (level) [2]: 5 (Level 5: growth control rate is above 85%)
weeding effect in post-emergence stage, Leptochloa chinensis (level) [3]: 5 (Level 5: growth control rate is above 85%)
weeding effect in post-emergence stage, Digitaria sanguinalis (level) [4]: 5 (Level 5: growth control rate is above 85%)
weeding effect in post-emergence stage, Galium aparine (level) [5]: 5 (Level 5: growth control rate is above 85%)
weeding effect in post-emergence stage, Abutilon theophrasti (level) [6]: 5 (Level 5: growth control rate is above 85%)
weeding effect in post-emergence stage, Veronica didyma Tenore (level) [7]: 5 (Level 5: growth control rate is above 85%)
weeding effect in post-emergence stage, Amaranthus retroflexus (level) [8]: 5 (Level 5: growth control rate is above 85%)
weeding effect in post-emergence stage, Eleusine indica (level) [9]: 5 (Level 5: growth control rate is above 85%)

C/C(=N\OC(=O)C1(C)CC(c2cc(-n3c(=O)n(C)c(=S)n(C)c3=S)c(F)cc2Cl)=NO1)c1ccccc1 (stereo not drawn) [Compound 70]
weeding effect in post-emergence stage, Setaria viridis (level) [1]: 5 (Level 5: growth control rate is above 85%)
weeding effect in post-emergence stage, Echinochloa crusgalli (level) [2]: 5 (Level 5: growth control rate is above 85%)
weeding effect in post-emergence stage, Leptochloa chinensis (level) [3]: 5 (Level 5: growth control rate is above 85%)
weeding effect in post-emergence stage, Digitaria sanguinalis (level) [4]: 5 (Level 5: growth control rate is above 85%)
weeding effect in post-emergence stage, Galium aparine (level) [5]: 5 (Level 5: growth control rate is above 85%)
weeding effect in post-emergence stage, Abutilon theophrasti (level) [6]: 5 (Level 5: growth control rate is above 85%)
weeding effect in post-emergence stage, Veronica didyma Tenore (level) [7]: 5 (Level 5: growth control rate is above 85%)
weeding effect in post-emergence stage, Amaranthus retroflexus (level) [8]: 5 (Level 5: growth control rate is above 85%)
weeding effect in post-emergence stage, Eleusine indica (level) [9]: 5 (Level 5: growth control rate is above 85%)

CCC(CC)=NOC(=O)C1(C)CC(c2cc(-n3c(=O)n(C)c(=S)n(C)c3=S)c(F)cc2Cl)=NO1 (stereo not drawn) [Compound 60]
weeding effect in post-emergence stage, Setaria viridis (level) [1]: 5 (Level 5: growth control rate is above 85%)
weeding effect in post-emergence stage, Echinochloa crusgalli (level) [2]: 5 (Level 5: growth control rate is above 85%)
weeding effect in post-emergence stage, Leptochloa chinensis (level) [3]: 5 (Level 5: growth control rate is above 85%)
weeding effect in post-emergence stage, Digitaria sanguinalis (level) [4]: 5 (Level 5: growth control rate is above 85%)
weeding effect in post-emergence stage, Galium aparine (level) [5]: 5 (Level 5: growth control rate is above 85%)
weeding effect in post-emergence stage, Abutilon theophrasti (level) [6]: 5 (Level 5: growth control rate is above 85%)
weeding effect in post-emergence stage, Veronica didyma Tenore (level) [7]: 5 (Level 5: growth control rate is above 85%)
weeding effect in post-emergence stage, Amaranthus retroflexus (level) [8]: 5 (Level 5: growth control rate is above 85%)
weeding effect in post-emergence stage, Eleusine indica (level) [9]: 5 (Level 5: growth control rate is above 85%)

C/C(=N\OC(=O)C1(C)CC(c2cc(-n3c(=O)n(C)c(=S)n(C)c3=S)c(F)cc2Cl)=NO1)C1CC1 (stereo not drawn) [Compound 61]
weeding effect in post-emergence stage, Setaria viridis (level) [1]: 5 (Level 5: growth control rate is above 85%)
weeding effect in post-emergence stage, Echinochloa crusgalli (level) [2]: 5 (Level 5: growth control rate is above 85%)
weeding effect in post-emergence stage, Leptochloa chinensis (level) [3]: 5 (Level 5: growth control rate is above 85%)
weeding effect in post-emergence stage, Digitaria sanguinalis (level) [4]: 5 (Level 5: growth control rate is above 85%)
weeding effect in post-emergence stage, Galium aparine (level) [5]: 5 (Level 5: growth control rate is above 85%)
weeding effect in post-emergence stage, Abutilon theophrasti (level) [6]: 5 (Level 5: growth control rate is above 85%)
weeding effect in post-emergence stage, Veronica didyma Tenore (level) [7]: 5 (Level 5: growth control rate is above 85%)
weeding effect in post-emergence stage, Amaranthus retroflexus (level) [8]: 5 (Level 5: growth control rate is above 85%)
weeding effect in post-emergence stage, Eleusine indica (level) [9]: 5 (Level 5: growth control rate is above 85%)

CC(C)=NOC(=O)C1(C)CC(c2nc(-n3c(=O)cc(C(F)(F)F)n(C)c3=O)c(F)cc2Cl)=NO1 (stereo not drawn) [Compound 170]
weeding effect in post-emergence stage, Setaria viridis (level) [1]: 5 (Level 5: growth control rate is above 85%)
weeding effect in post-emergence stage, Echinochloa crusgalli (level) [2]: 5 (Level 5: growth control rate is above 85%)
weeding effect in post-emergence stage, Leptochloa chinensis (level) [3]: 5 (Level 5: growth control rate is above 85%)
weeding effect in post-emergence stage, Digitaria sanguinalis (level) [4]: 5 (Level 5: growth control rate is above 85%)
weeding effect in post-emergence stage, Galium aparine (level) [5]: 5 (Level 5: growth control rate is above 85%)
weeding effect in post-emergence stage, Abutilon theophrasti (level) [6]: 5 (Level 5: growth control rate is above 85%)
weeding effect in post-emergence stage, Veronica didyma Tenore (level) [7]: 5 (Level 5: growth control rate is above 85%)
weeding effect in post-emergence stage, Amaranthus retroflexus (level) [8]: 5 (Level 5: growth control rate is above 85%)
weeding effect in post-emergence stage, Eleusine indica (level) [9]: 5 (Level 5: growth control rate is above 85%)

CC(C)=NOC(=O)C1(C)CC(c2cc(-n3c(=O)n(C)c(=S)n(C)c3=O)c(F)cc2Cl)=NO1 (stereo not drawn) [Compound 10]
weeding effect in post-emergence stage, Setaria viridis (level) [1]: 5 (Level 5: growth control rate is above 85%)
weeding effect in post-emergence stage, Echinochloa crusgalli (level) [2]: 5 (Level 5: growth control rate is above 85%)
weeding effect in post-emergence stage, Leptochloa chinensis (level) [3]: 5 (Level 5: growth control rate is above 85%)
weeding effect in post-emergence stage, Digitaria sanguinalis (level) [4]: 5 (Level 5: growth control rate is above 85%)
weeding effect in post-emergence stage, Galium aparine (level) [5]: 5 (Level 5: growth control rate is above 85%)
weeding effect in post-emergence stage, Abutilon theophrasti (level) [6]: 5 (Level 5: growth control rate is above 85%)
weeding effect in post-emergence stage, Veronica didyma Tenore (level) [7]: 5 (Level 5: growth control rate is above 85%)
weeding effect in post-emergence stage, Amaranthus retroflexus (level) [8]: 5 (Level 5: growth control rate is above 85%)
weeding effect in post-emergence stage, Eleusine indica (level) [9]: 5 (Level 5: growth control rate is above 85%)

CC(C)=NOC(=O)C1(C)CC(c2nc(-n3c(=O)n(C)c(=S)n(C)c3=O)c(F)cc2Cl)=NO1 (racemic) [Compound 16]
weeding effect in post-emergence stage, Setaria viridis (level) [1]: 5 (Level 5: growth control rate is above 85%)
weeding effect in post-emergence stage, Echinochloa crusgalli (level) [2]: 5 (Level 5: growth control rate is above 85%)
weeding effect in post-emergence stage, Leptochloa chinensis (level) [3]: 5 (Level 5: growth control rate is above 85%)
weeding effect in post-emergence stage, Digitaria sanguinalis (level) [4]: 5 (Level 5: growth control rate is above 85%)
weeding effect in post-emergence stage, Galium aparine (level) [5]: 5 (Level 5: growth control rate is above 85%)
weeding effect in post-emergence stage, Abutilon theophrasti (level) [6]: 5 (Level 5: growth control rate is above 85%)
weeding effect in post-emergence stage, Veronica didyma Tenore (level) [7]: 5 (Level 5: growth control rate is above 85%)
weeding effect in post-emergence stage, Amaranthus retroflexus (level) [8]: 5 (Level 5: growth control rate is above 85%)
weeding effect in post-emergence stage, Eleusine indica (level) [9]: 5 (Level 5: growth control rate is above 85%)

CC(C)=NOC(=O)C1(C)CC(c2cc(-n3c(=O)n(C)c(=S)n(C)c3=S)c(F)cc2Cl)=NO1 (stereo not drawn) [Compound 56]
weeding effect in post-emergence stage, Setaria viridis (level) [1]: 5 (Level 5: growth control rate is above 85%)
weeding effect in post-emergence stage, Echinochloa crusgalli (level) [2]: 5 (Level 5: growth control rate is above 85%)
weeding effect in post-emergence stage, Leptochloa chinensis (level) [3]: 5 (Level 5: growth control rate is above 85%)
weeding effect in post-emergence stage, Digitaria sanguinalis (level) [4]: 5 (Level 5: growth control rate is above 85%)
weeding effect in post-emergence stage, Galium aparine (level) [5]: 5 (Level 5: growth control rate is above 85%)
weeding effect in post-emergence stage, Abutilon theophrasti (level) [6]: 5 (Level 5: growth control rate is above 85%)
weeding effect in post-emergence stage, Veronica didyma Tenore (level) [7]: 5 (Level 5: growth control rate is above 85%)
weeding effect in post-emergence stage, Amaranthus retroflexus (level) [8]: 5 (Level 5: growth control rate is above 85%)
weeding effect in post-emergence stage, Eleusine indica (level) [9]: 5 (Level 5: growth control rate is above 85%)
